Source: patent US8053585B2, “Protecting group for carboxylic acids that can be photolyzed by visible light” (Cornell Research Foundation, Inc., priority 2006, dated 2011)
Values joined by “and” are separate entries in the source; they are usually repeats but may differ in a detail not shown here. Equal entries are not always repeated. “Also recorded” adds a separate entry of the source.

Assays:
Type in all cases: physicochemical
[1] = UV-vis absorption spectrum of the caged compound; details: for ε390: 390 nm; for ε400: 400 nm
Protocol: The caged compound (1 mM) was rapidly dissolved in the buffer solution (150 mM NaCl, 1 mM CaCl2, 10 mM HEPES; the pH was adjusted to 7.4 using 5 N NaOH), and the solution was immediately transferred to a cuvette (4 mL volume, 10 mm path length) and placed in an absorption spectrometer (OLIS-14C) at 22° C. Whole spectra were recorded between 1 and 240 min after the compound was dissolved (FIGS. 1 and 7).

[2] = Laser-flash photolysis (transient spectral measurements); details: for time to release the amino acid on photolysis: aqueous solution, visible region; for time constant of single-exponential absorbance decay at 460 nm: light pulse ≧400 nm, 0.8 mM, HEK buffer pH 7.4, 22° C.
Protocol: […] The energy of the beam was measured using a Molectron (Portland, Oreg.) joule meter. Light of≧400 nm produced by fluorescence from 4.9×10^−4 M Exalite 404 dye (Exciton Inc., Dayton, Ohio) was used to initiate photolysis. The decay of the transient intermediate absorbance was recorded by digitizing the photomultiplier output at rates up to 2 MHz. The transient absorption changes were monitored at a wavelength where there was significant change in the absorption on irradiation of the caged compound (ca. 460 nm). All photolysis rates and quantum yields were measured at room temperature. Nonlinear least-squares fitting of single exponential decays was used to determine the photolysis rate constants.

[3] = Quantum yield of photolysis; details: ≧400 nm, 250 μM, extracellular buffer pH 7.4, 22° C.
Protocol: The quantum yield for the caged compound was determined by actinometric methods (Murov, in Dekker, ed., Handbook of Photochemistry, New York, pp. 298-305 (1993), which is hereby incorporated by reference in its entirety). The Oriel (Oriel Instruments, Stratford, Conn.) lamp used for photolysis was equipped with a filter (Schott glass filter GG400; Schott North America, Inc., Elmsford, N.Y.) to eliminate light at wavelengths below 400 nm.
The quantum yield was also determined using the method published by Milburn et al., “Synthesis, Photochemistry, and Biological Activity of a Caged Photolabile Acetylcholine Receptor Ligand,” Biochemistry 28:49-55 (1989), which is hereby incorporated by reference in its entirety. For measuring the quantum yield of DECM-caged glutamate photolysis, 3 mL sample of 4 (Scheme 1) was photolyzed with repetitive light pulses at≧400 nm, and the concentration of 2 (Scheme 1) was determined spectrophotometrically. For measuring the quantum yield of DECM-caged glycine photolysis, 3 mL sample of 4 (Scheme 2) was photolyzed with repetitive light pulses at≧400 nm, and the concentration of 2 (Scheme 2) was determined spectrophotometrically. […]

[4] = Hydrolysis in the dark (thermal stability, UV-vis spectra); details: for hydrolysis at room temperature: HEK buffer pH 7.4, protected from light, 2 h; for hydrolysis on storage: buffer pH 7.4, −20° C. in the dark; for stability in water: pH 7.4 and 22° C. / physiological conditions, in the dark
[5] = Solubility in water or the buffers used; details: physiological conditions

| SMILES | major absorption band maximum [1] | ε390 [1] | ε400 [1] | time to release the amino acid on photolysis [2] | time constant of single-exponential absorbance decay at 460 nm [2] | quantum yield of photolysis [3] | hydrolysis at room temperature [4] | hydrolysis on storage ([4]; 20 h) | stability in water [4] | solubility in water [5] | hydrolysis on storage ([4]; 24 h) |
| --- | --- | --- | --- | --- | --- | --- | --- | --- | --- | --- | --- |
| CCN(CC)c1ccc2c(COC(=O)CN)cc(=O)oc2c1 [DECM-caged glycine, (7-N,N-Diethylaminocoumarin-4-yl)-methyl-glycine-trifluoroacetate] | 390 nm | 13869 M⁻¹ cm⁻¹ | 12427 M⁻¹ cm⁻¹ | ≤ 2.6 μs | 2.6 μs | 0.12±0.009 | very little hydrolysis | No measurable hydrolysis | stable | water soluble | – |
| CCN(CC)c1ccc2c(COC(=O)CCC(N)C(=O)O)cc(=O)oc2c1 (centres unmarked) [DECM-caged glutamate, (7-N,N-Diethylaminocoumarin-4-yl)-methyl-glutamate-trifluoroacetate] | 390 nm | 13651 M⁻¹ cm⁻¹ | 12232 M⁻¹ cm⁻¹ | ≤ 3 μs | 3 μs | 0.11±0.008 and 0.11±0.08 | very little hydrolysis | – | stable in the dark | sufficiently soluble in water or the buffers used; also recorded: water soluble | No measurable hydrolysis |
